One compound from PMC9583304 (ACS Omega, 2022) can be followed below.

In this assay the target is T1, porcine pancreatic lipase (Sus scrofa, UniProt P00591).
T1 sequence (P00591 1-450): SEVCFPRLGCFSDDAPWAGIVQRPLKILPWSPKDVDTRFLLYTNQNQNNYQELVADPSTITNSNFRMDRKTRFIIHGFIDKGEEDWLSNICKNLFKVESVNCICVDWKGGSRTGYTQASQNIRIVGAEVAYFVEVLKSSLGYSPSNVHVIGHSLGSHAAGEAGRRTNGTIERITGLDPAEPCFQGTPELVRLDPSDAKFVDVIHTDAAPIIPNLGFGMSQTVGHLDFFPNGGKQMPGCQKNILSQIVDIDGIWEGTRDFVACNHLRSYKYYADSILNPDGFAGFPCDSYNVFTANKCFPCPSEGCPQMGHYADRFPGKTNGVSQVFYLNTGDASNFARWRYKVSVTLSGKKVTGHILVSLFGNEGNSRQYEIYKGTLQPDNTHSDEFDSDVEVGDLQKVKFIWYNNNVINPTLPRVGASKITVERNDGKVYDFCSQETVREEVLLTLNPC
As to the kind of experiment: Pancreatic lipase assay. It is filed as biochemical.

The compound `O=C(O[C@@H]1C=C[C@@H](OC(=O)c2ccccc2)[C@](O)(CO)[C@H]1O)c1ccccc1` (relative stereo) [Compound 1, (1R*,4R*,5S*,6S*)-5,6-dihydroxy-5-(hydroxymethyl)cyclohex-2-ene-1,4-diyl dibenzoate] registered an IC50 of 11.2 µM.

Broadly, the IC50 is the concentration needed to halve the response being measured.
